Measured values: patent US9969726B2, “Metabotropic glutamate receptor negative allosteric modulators (NAMS) and uses thereof” (Sanford-Burnham Medical Research Institute, priority 2014, dated 2018)
Where two headings read alike, the source gives them in different places.

Assays:
rat mGlu2 receptor = rat mGlu2 receptor (Rattus norvegicus (Rat), UniProt P31421); experiment: mGlu2 in vitro GIRK thallium flux assay; type: cell-based; conditions: NAM, EC80 glutamate, HEK-293 GIRK cells
How it was run: (§1)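 Cells expressing rat mGlu2 or mGlu3 with GIRK, plated overnight at 37 °C. Test compounds (0.3% DMSO, 10-point 1:3 series) preincubated 2.5 or 60 min, then thallium buffer plus EC80 glutamate added. Fluorescence slope 5–15 s after addition, normalised to vehicle and maximal agonist, fitted by four-parameter logistic.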

rat mGlu3 receptor = rat mGlu3 receptor (Rattus norvegicus (Rat), UniProt P31422); experiment: mGlu3 in vitro GIRK thallium flux assay; type: cell-based; conditions: NAM; 2.5 min compound incubation; EC80 glutamate; HEK-293 GIRK cells
How it was run: as §1

[1] = 2.5 min compound incubation, read-out: mGlu2 EC50 (μM) (2.5 min)
[2] = read-out: mGlu2 EC50 (μM) (60 min), 60 min compound incubation
[3] = mGlu2 EC50 (μM) (60 min), 60 min compound incubation

Chain of rat mGlu2 receptor (P31421 19-872): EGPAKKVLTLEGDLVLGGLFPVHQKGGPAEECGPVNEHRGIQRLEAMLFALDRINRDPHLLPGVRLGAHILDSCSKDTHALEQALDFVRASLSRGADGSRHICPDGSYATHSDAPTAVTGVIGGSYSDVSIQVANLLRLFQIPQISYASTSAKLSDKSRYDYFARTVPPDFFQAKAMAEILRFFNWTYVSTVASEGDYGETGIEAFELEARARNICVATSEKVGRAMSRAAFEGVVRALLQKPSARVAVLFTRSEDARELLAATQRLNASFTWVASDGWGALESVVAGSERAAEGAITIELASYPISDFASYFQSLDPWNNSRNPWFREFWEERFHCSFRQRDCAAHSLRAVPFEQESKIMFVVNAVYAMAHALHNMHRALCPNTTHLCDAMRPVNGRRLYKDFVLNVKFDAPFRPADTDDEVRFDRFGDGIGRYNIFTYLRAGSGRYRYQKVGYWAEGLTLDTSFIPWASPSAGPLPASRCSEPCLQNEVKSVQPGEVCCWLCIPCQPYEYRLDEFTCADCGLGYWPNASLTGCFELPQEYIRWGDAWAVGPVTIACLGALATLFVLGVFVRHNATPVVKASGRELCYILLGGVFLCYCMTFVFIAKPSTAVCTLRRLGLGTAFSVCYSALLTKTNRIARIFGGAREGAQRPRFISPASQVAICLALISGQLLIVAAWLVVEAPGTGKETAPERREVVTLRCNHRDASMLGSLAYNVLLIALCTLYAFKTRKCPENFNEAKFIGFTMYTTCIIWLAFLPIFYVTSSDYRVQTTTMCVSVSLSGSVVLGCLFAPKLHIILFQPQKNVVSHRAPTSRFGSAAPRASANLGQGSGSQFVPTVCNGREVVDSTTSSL
Chain of rat mGlu3 receptor (P31422 23-879): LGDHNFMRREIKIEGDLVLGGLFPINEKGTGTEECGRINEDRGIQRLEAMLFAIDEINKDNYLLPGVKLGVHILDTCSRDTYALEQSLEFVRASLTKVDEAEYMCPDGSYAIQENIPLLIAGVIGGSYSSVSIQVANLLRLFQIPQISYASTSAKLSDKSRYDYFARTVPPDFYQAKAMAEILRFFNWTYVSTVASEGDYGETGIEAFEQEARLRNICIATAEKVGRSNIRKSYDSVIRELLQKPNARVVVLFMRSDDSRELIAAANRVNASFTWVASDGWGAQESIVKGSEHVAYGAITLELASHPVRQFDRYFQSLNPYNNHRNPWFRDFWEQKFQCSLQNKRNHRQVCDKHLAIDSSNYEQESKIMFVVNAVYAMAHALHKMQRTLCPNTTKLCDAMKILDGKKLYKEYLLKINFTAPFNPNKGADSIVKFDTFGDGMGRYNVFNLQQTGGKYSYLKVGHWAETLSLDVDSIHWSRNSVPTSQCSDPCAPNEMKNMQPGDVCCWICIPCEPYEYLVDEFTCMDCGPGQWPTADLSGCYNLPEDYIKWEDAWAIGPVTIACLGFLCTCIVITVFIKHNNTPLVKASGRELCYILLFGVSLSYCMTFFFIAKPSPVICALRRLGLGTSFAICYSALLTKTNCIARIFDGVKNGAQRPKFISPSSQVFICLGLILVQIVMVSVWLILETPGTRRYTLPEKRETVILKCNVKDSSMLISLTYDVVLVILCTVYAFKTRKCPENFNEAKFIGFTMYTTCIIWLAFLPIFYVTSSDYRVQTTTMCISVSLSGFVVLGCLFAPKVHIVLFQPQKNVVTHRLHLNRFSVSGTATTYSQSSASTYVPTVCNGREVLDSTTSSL

| SMILES | EC50 (rat mGlu2 receptor; [1]) [µM] | EC50 (rat mGlu2 receptor; [2]) [µM] | EC50 (rat mGlu3 receptor) [µM] | EC50 (rat mGlu2 receptor; [3]) [µM] |
| --- | --- | --- | --- | --- |
| O=C(O)c1cccc(-c2cccc(-c3nc(-c4ccoc4)cc(C(F)(F)F)n3)c2)c1 [Example 115, 3′-(4-(Furan-3-yl)-6-(trifluoromethyl)pyrimidin-2-yl)biphenyl-3-carboxylic acid] | 0.28 | 0.12 | 0.96 | – |
| O=C(O)c1cc(-c2cccc(-c3nc(-c4cccnc4)cc(C(F)(F)F)n3)c2)ccc1F [Example 116, 4-Fluoro-3′-(4-(pyridin-3-yl)-6-(trifluoromethyl)pyrimidin-2-yl)biphenyl-3-carboxylic Acid] | 2.11 | 0.27 | 8.58 | – |
| Cc1cc(-c2ccoc2)nc(-c2cccc(-c3ccc(F)c(C(=O)O)c3)c2)n1 [Example 117, 4-Fluoro-3′-(4-(furan-3-yl)-6-methylpyrimidin-2-yl)biphenyl-3-carboxylic acid] | 0.08 | 0.07 | 0.28 | – |
| O=C(O)c1cc(-c2cccc(-c3nccc(-c4ccoc4)n3)c2)ccc1F [Example 118, 4-Fluoro-3′-(4-(furan-3-yl)pyrimidin-2-yl)biphenyl-3-carboxylic Acid] | 0.26 | 1.01 | 1.38 | – |
| Cc1cc(-c2ccoc2)nc(-c2cccc(-c3cccc(C(=O)O)c3)c2)n1 [Example 119, 3′-(4-(Furan-3-yl)-6-methylpyrimidin-2-yl)biphenyl-3-carboxylic Acid] | 0.05 | 0.06 | 0.35 | – |
| COc1ccc(-c2cc(C(F)(F)F)nc(-c3cccc(-c4ccc(F)c(C(=O)O)c4)c3)n2)cn1 [Example 120, 4-Fluoro-3′-(4-(6-methoxypyridin-3-yl)-6-(trifluoromethyl)pyrimidin-2-yl)-[1,1′-biphenyl]-3-carboxylic Acid] | 1.43 | 0.35 | 1.41 | – |
| Cc1cc(-c2ccoc2)nc(-c2cccc(-c3cc(F)cc(C(=O)O)c3)c2)n1 [Example 121, 5-Fluoro-3′-(4-(furan-3-yl)-6-methylpyrimidin-2-yl)-[1,1′-biphenyl]-3-carboxylic Acid] | 0.35 | – | 2.21 | 0.31 |
| FC(F)(F)c1ccc(-c2cc(C(F)(F)F)nc(-c3cccc(-c4cccc(-c5nn[nH]n5)c4)c3)n2)cn1 [Example 123, 2-(3′-(2H-Tetrazol-5-yl)biphenyl-3-yl)-4-(trifluoromethyl)-6-(6-(trifluoromethyl)pyridin-3-yl)pyrimidine] | 0.75 | 0.43 | 2.39 | – |
| NS(=O)(=O)c1cccc(-c2cn(-c3nc(-c4ccc(C(F)(F)F)nc4)cc(C(F)(F)F)n3)cn2)c1 [Example 125, 3-(1-(4-(Trifluoromethyl)-6-(6-(trifluoromethyl)pyridin-3-yl)pyrimidin-2-yl)-1H-imidazol-4-yl)benzenesulfonamide] | > 10 | > 10 | > 30 | – |
| Nc1cccc(-c2cn(-c3nc(-c4ccc(C(F)(F)F)nc4)cc(C(F)(F)F)n3)cn2)c1 [Example 126, 3-(1-(4-(Trifluoromethyl)-6-(6-(trifluoromethyl)pyridin-3-yl)pyrimidin-2-yl)-1H-imidazol-4-yl)aniline] | > 30 | > 10 | > 30 | – |
| O=C(O)c1cc(-c2cccc(Nc3nc(-c4ccco4)cc(C(F)(F)F)n3)c2)ccc1F [Example 127, 4-Fluoro-3′-(4-(furan-2-yl)-6-(trifluoromethyl)pyrimidin-2-ylamino)biphenyl-3-carboxylic Acid] | 5.33 | > 10 | 3.9 | – |
| O=C(O)c1cc(-c2cccc(Oc3nc(-c4ccco4)cc(C(F)(F)F)n3)c2)ccc1F [Example 128, 4-Fluoro-3′-(4-(furan-2-yl)-6-(trifluoromethyl)pyrimidin-2-yloxy)biphenyl-3-carboxylic Acid] | > 30 | > 30 | > 30 | – |
| O=C(O)c1cc(-c2cccc(Sc3nc(-c4ccco4)cc(C(F)(F)F)n3)c2)ccc1F [Example 129, 4-Fluoro-3′-(4-(furan-2-yl)-6-(trifluoromethyl)pyrimidin-2-ylthio)biphenyl-3-carboxylic Acid] | > 10 | 3.25 | > 10 | – |
| Fc1ccc(C#Cc2cccc(-c3nc(-c4ccc(C(F)(F)F)nc4)cc(C(F)(F)F)n3)c2)cc1 [Example 130, 2-(3-((4-Fluorophenyl)ethynyl)phenyl)-4-(trifluoromethyl)-6-(6-(trifluoromethyl)pyridin-3-yl)pyrimidine] | > 30 | > 10 | > 30 | – |
| O=C(NO)c1cc(-c2cccc(-c3nc(-c4ccoc4)cc(C(F)(F)F)n3)c2)ccc1F [Example 131, 4-Fluoro-3′-(4-(furan-3-yl)-6-(trifluoromethyl)pyrimidin-2-yl)-N-hydroxy-[1,1′-biphenyl]-3-carboxamide] | > 10 | 3.36 | > 10 | – |
| CONC(=O)c1cc(-c2cccc(-c3nc(-c4ccoc4)cc(C(F)(F)F)n3)c2)ccc1F [Example 132, 4-Fluoro-3′-(4-(furan-3-yl)-6-(trifluoromethyl)pyrimidin-2-yl)-N-methoxy-[1,1′-biphenyl]-3-carboxamide] | > 10 | 7.1 | 5.26 | – |

| SMILES | EC50 (rat mGlu2 receptor; [1]) [µM] | EC50 (rat mGlu2 receptor; [2]) [µM] | EC50 (rat mGlu3 receptor) [µM] | EC50 (rat mGlu2 receptor; [3]) [µM] |
| --- | --- | --- | --- | --- |
| Cc1cc2c(cc1C(F)(F)F)NC(=O)CC(c1cccc(Oc3ccccc3)c1)=N2 [Example 143, 7-Methyl-4-(3-phenoxyphenyl)-8-(trifluoromethyl)-1H-benzo[b][1, 4]diazepin-2 (3H)-one] | 2.21 | – | 2.62 | 1.19 |
| Cc1cc2c(cc1C(F)(F)F)NC(=O)CC(c1cccc(OCc3ccccc3)c1)=N2 [Example 144, 4-(3-(Benzyloxy)phenyl)-7-methyl-8-(trifluoromethyl)-1H-benzo[b][1,4]diazepin-2(3H)-one] | > 10 | – | 2.93 | 2.36 |
| Cc1cc2c(cc1C(F)(F)F)NC(=O)CC(c1cccc(Oc3cccc(Br)c3)c1)=N2 [Example 145, 4-(3-(3-Bromophenoxy)phenyl)-7-methyl-8-(trifluoromethyl)-1H-benzo[b][1,4]diazepin-2(3H)-one] | > 10 | > 10 | > 10 | – |
| Cc1cc2c(cc1C(F)(F)F)NC(=O)CC(c1cccc(Oc3cc(F)cc(F)c3)c1)=N2 [Example 146, 4-(3-(3,5-difluorophenoxy)phenyl)-7-methyl-8-(trifluoromethyl)-1H-benzo[b][1,4]diazepin-2(3H)-one] | > 10 | > 10 | > 10 | – |
| Cc1cc2c(cc1C(F)(F)F)NC(=O)CC(c1cccc(Oc3ccccn3)c1)=N2 [Example 150, 7-Methyl-4-(3-(pyridin-2-yloxy)phenyl)-8-(trifluoromethyl)-1H-benzo[b][1,4]diazepin-2(3H)-one] | 2.79 | – | 1.52 | – |
| Cc1cc(-c2cccc(C3CC(=O)Nc4cc(NC(=O)Oc5ccccc5)ccc4N3)c2)cc(C)n1 (stereo not drawn) [Example 163, Phenyl (2-(3-(2,6-dimethylpyridin-4-yl)phenyl)-4-oxo-2,3,4,5-tetrahydro-1H-benzo[b][1,4]diazepin-7-yl)carbamate] | > 10 | > 10 | > 10 | – |
| N#Cc1cc(C2=Nc3ccc(F)cc3NC(=O)C2)ccn1 [Example 180, 4-(8-Fluoro-2-oxo-2,3-dihydro-1H-benzo[b][1,4]diazepin-4-yl)picolinonitrile] | 0.88 | 0.31 | 0.86 | – |
| N#Cc1cc(C2=Nc3ccc(Cl)cc3NC(=O)C2)ccn1 [Example 181, 4-(8-Chloro-2-oxo-2,3-dihydro-1H-benzo[b][1,4]diazepin-4-yl)picolinonitrile] | > 10 | – | > 10 | – |
| N#Cc1cc(C2=Nc3ccc(I)cc3NC(=O)C2)ccn1 [Example 183, 4-(8-Iodo-2-oxo-2,3-dihydro-1H-benzo[b][1,4]diazepin-4-yl)picolinonitrile] | 0.11 | 0.03 | 0.07 | – |
| N#Cc1cc(C2=Nc3ccc(C#Cc4ccc(F)cc4)cc3NC(=O)C2)ccn1 [Example 185, 4-(8-((4-Fluorophenyl)ethynyl)-2-oxo-2,3-dihydro-1H-benzo[b][1,4]diazepin-4-yl)picolinonitrile] | > 10 | – | 1.45 | – |
| O=C1CC(c2ccnc(Cl)c2)=Nc2ccc(-c3ccc(Cl)cc3)cc2N1 [Example 186, 8-(4-Chlorophenyl)-4-(2-chloropyridin-4-yl)-1,3-dihydro-2H-benzo[b][1,4]diazepin-2-one] | 2.42 | 1.01 | 1.36 | – |
| O=C1CC(c2ccnc(Cl)c2)=Nc2ccc(-c3ccccc3F)cc2N1 [Example 187, 4-(2-Chloropyridin-4-yl)-8-(2-fluorophenyl)-1,3-dihydro-2H-benzo[b][1,4]diazepin-2-one] | 0.98 | – | 0.71 | – |
| O=C1CC(c2ccnc(Cl)c2)=Nc2ccc(-c3cccnc3F)cc2N1 [Example 188, 4-(2-Chloropyridin-4-yl)-8-(2-fluoropyridin-3-yl)-1,3-dihydro-2H-benzo[b][1,4]diazepin-2-one] | > 10 | – | 1.7 | – |
| O=C1CC(c2ccnc(Cl)c2)=Nc2ccc(C(F)(F)F)cc2N1 [Example 189, 4-(2-Chloropyridin-4-yl)-8-(trifluoromethyl)-1,3-dihydro-2H-benzo[b][1,4]diazepin-2-one] | 0.29 | 0.08 | 0.28 | – |
| O=C1CC(c2ccnc(Cl)c2)=Nc2ccc(-c3cc(F)cc(F)c3)cc2N1 [Example 190, 4-(2-Chloropyridin-4-yl)-8-(3,5-difluorophenyl)-1,3-dihydro-2H-benzo[b][1,4]diazepin-2-one] | > 10 | – | > 10 | – |
